In the NIST ThermoML archive (doi:10.1016/j.jct.2013.10.031):
Numbers after ± are expanded uncertainties.

Assay: wn = mass fraction of the nth substance listed
Conditions: Gas, Burnett expansion method

FCC(F)(F)F [1,1,1,2-tetrafluoroethane] + CCC
Conditions	mass density [kg/m3]
272.14 K, 376.9 kPa, w2 = 0.4	12.2714 ± 0.73
272.14 K, 486.9 kPa, w2 = 0.4	16.3457 ± 0.75
275.01 K, 306 kPa, w2 = 0.6	8.178 ± 0.58
275.01 K, 398.5 kPa, w2 = 0.6	10.8743 ± 0.61
275.01 K, 514 kPa, w2 = 0.6	14.4598 ± 0.63
275.02 K, 233.7 kPa, w2 = 0.6	6.1499 ± 0.56
275.03 K, 233.5 kPa, w2 = 0.55	6.3604 ± 0.58
275.04 K, 177.6 kPa, w2 = 0.55	4.7832 ± 0.56
275.04 K, 259 kPa, w2 = 0.65	6.6072 ± 0.55
275.04 K, 397.9 kPa, w2 = 0.55	11.2458 ± 0.63
275.04 K, 513.5 kPa, w2 = 0.55	14.954 ± 0.67
275.05 K, 134.8 kPa, w2 = 0.55	3.597 ± 0.55
275.05 K, 197.5 kPa, w2 = 0.65	4.9688 ± 0.53
275.05 K, 305.8 kPa, w2 = 0.55	8.4571 ± 0.6
275.05 K, 338.2 kPa, w2 = 0.65	8.7857 ± 0.57
275.06 K, 150.2 kPa, w2 = 0.65	3.7365 ± 0.52
275.06 K, 438.6 kPa, w2 = 0.65	11.682 ± 0.58
276.01 K, 525 kPa, w2 = 0.5	16.127 ± 0.68
276.07 K, 240.8 kPa, w2 = 0.5	6.8235 ± 0.6
276.07 K, 314.5 kPa, w2 = 0.5	9.08914 ± 0.64
276.08 K, 138.3 kPa, w2 = 0.5	3.84563 ± 0.58
276.08 K, 182.4 kPa, w2 = 0.5	5.12246 ± 0.58
276.08 K, 408.6 kPa, w2 = 0.5	12.1069 ± 0.68
276.09 K, 131.9 kPa, w2 = 0.4	3.96275 ± 0.63
276.09 K, 173.8 kPa, w2 = 0.4	5.27854 ± 0.64
276.09 K, 228.4 kPa, w2 = 0.4	7.03132 ± 0.66
276.09 K, 299.1 kPa, w2 = 0.4	9.36594 ± 0.68
276.09 K, 389.5 kPa, w2 = 0.4	12.4758 ± 0.72
276.09 K, 503.4 kPa, w2 = 0.4	16.618 ± 0.74
276.23 K, 613 kPa, w2 = 0.45	19.9443 ± 0.76
276.24 K, 369.2 kPa, w2 = 0.45	11.24 ± 0.67
276.25 K, 215.6 kPa, w2 = 0.45	6.3345 ± 0.62
276.25 K, 282.9 kPa, w2 = 0.45	8.43787 ± 0.64
276.25 K, 478.6 kPa, w2 = 0.45	14.9718 ± 0.72
276.26 K, 163.8 kPa, w2 = 0.45	4.75547 ± 0.61
278.98 K, 613.4 kPa, w2 = 0.55	18.0169 ± 0.75
278.99 K, 431 kPa, w2 = 0.65	11.2429 ± 0.59
279 K, 193.1 kPa, w2 = 0.65	4.7818 ± 0.52
279 K, 253.6 kPa, w2 = 0.65	6.3584 ± 0.53
279 K, 331.6 kPa, w2 = 0.65	8.4549 ± 0.55
279 K, 555.1 kPa, w2 = 0.65	14.9493 ± 0.61
279.04 K, 478.7 kPa, w2 = 0.55	13.5464 ± 0.65
279.05 K, 201 kPa, w2 = 0.6	5.1513 ± 0.53
279.05 K, 264.1 kPa, w2 = 0.6	6.8498 ± 0.55
279.06 K, 152.4 kPa, w2 = 0.6	3.874 ± 0.53
279.06 K, 345.5 kPa, w2 = 0.6	9.1083 ± 0.58
279.06 K, 369.2 kPa, w2 = 0.55	10.1866 ± 0.6
279.06 K, 448.9 kPa, w2 = 0.6	12.1114 ± 0.61
279.06 K, 577.6 kPa, w2 = 0.6	16.1046 ± 0.65
279.07 K, 163.6 kPa, w2 = 0.55	4.3324 ± 0.55
279.07 K, 282.8 kPa, w2 = 0.55	7.6605 ± 0.58
279.08 K, 215.4 kPa, w2 = 0.55	5.7608 ± 0.56
280.01 K, 670.7 kPa, w2 = 0.4	22.729 ± 0.8
280.02 K, 180.8 kPa, w2 = 0.4	5.41974 ± 0.63
280.02 K, 237.8 kPa, w2 = 0.4	7.21933 ± 0.65
280.02 K, 311.5 kPa, w2 = 0.4	9.61644 ± 0.67
280.02 K, 405.9 kPa, w2 = 0.4	12.8096 ± 0.71
280.02 K, 524.7 kPa, w2 = 0.4	17.0629 ± 0.76
280.17 K, 150 kPa, w2 = 0.45	4.28073 ± 0.61
280.17 K, 197.2 kPa, w2 = 0.45	5.70206 ± 0.62
280.17 K, 436.6 kPa, w2 = 0.45	13.4767 ± 0.7
280.18 K, 257.8 kPa, w2 = 0.45	7.59526 ± 0.63
280.18 K, 336.4 kPa, w2 = 0.45	10.1172 ± 0.66
280.18 K, 562.4 kPa, w2 = 0.45	17.9508 ± 0.69
280.2 K, 176.2 kPa, w2 = 0.5	4.88417 ± 0.64
280.2 K, 228 kPa, w2 = 0.5	6.50598 ± 0.63
280.2 K, 295.2 kPa, w2 = 0.5	8.66625 ± 0.66
280.2 K, 382.2 kPa, w2 = 0.5	11.5437 ± 0.69
280.2 K, 490.7 kPa, w2 = 0.5	15.3768 ± 0.75
280.2 K, 626.5 kPa, w2 = 0.5	20.4828 ± 0.77
282.96 K, 514.9 kPa, w2 = 0.6	16.8632 ± 0.73
282.98 K, 397.4 kPa, w2 = 0.6	10.4251 ± 0.89
282.98 K, 629.9 kPa, w2 = 0.6	18.4329 ± 0.21
282.99 K, 232 kPa, w2 = 0.6	5.8957 ± 0.53
282.99 K, 301.9 kPa, w2 = 0.65	7.5146 ± 0.53
282.99 K, 304.4 kPa, w2 = 0.6	7.8397 ± 0.55
